From US20230096761A1, “NOVEL COMPOSITION BASED ON POLYCAFFEOYLQUINIC ACIDS, COSMETIC USE THEREOF AND COSMETIC COMPOSITIONS COMPRISING SAME” (Societe D'Exploitation De Produits Pour Les Industries …, priority 2018, published 2023)
Marks after values point to notes of the source that are not given here.

System: normal human keratinocytes
Test: Keratinocyte differentiation: filaggrin immunolabeling normalized to nuclei
Format: cell-based
Conditions: positive reference 1 mMol/L, 72 hours
Method: To do this, normal human keratinocytes were cultured at 37° C. and 5% CO2. After a period of 4 days, they were treated with the products whose action it is desired to evaluate. After culturing for a further 72 hours at 37° C. and 5% CO2 with the test products, the cell lawns were rinsed, dried and then fixed with glacial methanol. Filaggrin, a keratinocyte differentiation marker, was detected and quantified by fluorescent immunolabeling with an anti-filaggrin primary antibody and a fluorescent secondary antibody to reveal the former. The nuclei were detected and quantified by marking with Hoechst, a fluorescent stain which binds to DNA and thus labels the nuclei. This last labeling was performed to normalize the results obtained previously on filaggrin. An increase in the filaggrin (area of labeling)/nuclei (area of labeling) ratio is evidence of an increase in the differentiation of the epidermal keratinocytes, and consequently of reinforcement of the barrier effect of the epidermis, which constitutes one of the factors of the reinforcement of the state of moisturization of the skin. An increase in keratinocyte differentiation makes it possible to reinforce the barrier effect of the human epidermis, and consequently to decrease the unesthetic effects that may be caused by the dehydration of human skin.

SMILES: [Ca+2].[Cl-].[Cl-] [CaCl2]
- Filaggrin (area of labeling)/nuclei (area of labeling): 0.0245 ± 0.0045
- % stimulation vs control (filaggrin/nuclei): 621* %
